Test system: TGF-β
Assay: Effects on the extracellular matrix production by TGF-β (proteoglycan production in fibroblast)
Format: cell-based
Conditions: Rattus norvegicus, NRK-49F cells, 3 ng/ml TGF-β, 24 h, [35S]-proteoglycan radioactivity, read-out: TGF-β inhibitory rate (%)
Experimental: Effects on the Extracellular Matrix Production by TGF-β The effect of the compounds of Examples on the production of proteoglycan when TGF-β was added to fibroblast was evaluated. NRK-49F cells (rat fibroblast) were cultured in Dulbecco's Modified Eagle Medium (DMEM: manufactured by GIBCO) containing 10% bovine serum, and used in this experiment. The cells were put into a 96-well plate in an amount of 2.5×10^4 cells/100 μl/well. On the next day, the medium in the plate was exchanged to the DMEM medium containing 3 ng/ml of TGF-β (manufactured by Nacalai Tesque, Inc.), 0.5 μCi/well of [^35S]-Na2SO4, and a test compound. […] The gel after electrophoresis was dried with a gel drier, and exposed to an imaging plate, which was analyzed with […] (manufactured by Fuji Photo Film). The radioactivity of proteoglycan to be electrophoresed was measured, and the TGF-β inhibitory rate was calculated by the following equation. TGF-β Inhibitory rate (%)=(A−B)×100/(A−C) A: Radioactivity in the presence of TGF-β without a test compound B: Radioactivity in the presence of TGF-β and a test compound C: Radioactivity in the absence of TGF-β and a test compound The TGF-β inhibitory rates (%) of the test compound at concentrations of 3 μM and 10 μM are shown in Table 1.

With `COC(=O)c1cc(Cl)ccc1/C=C/Cn1cccc1C(=O)c1ccc(O)cc1` [Example 103] the inhibition at 3 µM (test compound 3 μM) was 55% and the inhibition at 10 µM (test compound 10 μM) was 90%.

Source: patent US6759429B2, “Pyrrole derivatives” (Sumitomo Pharmaceuticals Co., Ltd., priority 2000, dated 2004)
